We go through 2 molecules from patent US20250367098A1, “SUNSCREEN COMPOSITION FOR LACTOBACILLUS AND S. EPIDERMIDIS PROTECTION ON SKIN” (DSM IP Assets B.V., priority 2022, published 2025).

Experiment [1] relates to Lactobacillus crispatus CIP 103604. In words: In vitro UV model: bacterial survival after UV irradiation (96-well, MPN method). The experiment is classed as cell-based. The method, then:
(§1) Accordingly, the inventors developed a targeted in vitro liquid model in 96-well microplate format to screen for UV protective actives (“UV filters”) on bacterial survival upon UV irradiation. The effects of selected UV irradiation conditions tested on microbial population of Lactobacillus crispatus (L. crispatus) and Staphylococcus epidermidis (S. epidermidis) in the presence of UV filter samples and combinations thereof were evaluated with the evolution of the residual microbial population after 4 h. The inhibition of bacterial growth, as consequence of UV irradiation, was compared to that of the same strain without UV irradiation and was expressed in percentage of survival (%). The microbial strains used in this study are listed below and their cultures are reconstituted according to the direction of the supplier collection center of the reference strain, CRBIP (Institut Pasteur Collection, France) or ATCC (American Type Culture Collection, USA): • Lactobacillus crispatus CIP 103604 • Staphylococcus epidermidis ATCC 12228 The 96-well plate was filled with the culture media (140 μL) and a calibrated inoculum (20 μL) of each bacterial strain was added to reach […] colony forming units per milliliter (cfu/mL) final concentration. After contamination, the sample was added (40 μL; 20% v/v) in triplicate and was thoroughly mixed to ensure a homogeneous distribution. Then, the plate was submitted to UV stress through an UV irradiator system (BioSun, Vilber Lourmat, France) according to the UV doses presented Table 1 below. The specific UV dose selected was between 10 and 49% survival of the microbial population. For the microbial population counts, aliquots of the contaminated samples of L. crispatus and S. epidermidis were serially diluted (4 decimal dilutions followed by 8 binary dilutions, in triplicate) in culture media on 96-wells plates with triphenyltetrazolium. Then, the plates were incubated at 37° C.±2,5° C. during 48 h taking into account the respiratory type of each strain. […] The use level of the single UV filter and combinations in the test formulations was calculated to obtain a predicted in vitro SPF value of 5.75+/−0.15 and 23.45+/−0.65, respectively (Table 2). […] The relative percentage of protection (%) was calculated from the difference between the survival percentages of samples and vehicle control (with UV irradiation) and divided to the survival percentage of the vehicle control. Consequently, the survival of each microbial population and the relative protection by the UV filter(s) were calculated and are summarized in the Table 2.

In experiment [2] the test system is Staphylococcus epidermidis ATCC 12228. The description is as above. The class given is cell-based. The method, then:
as §1

Regarding `CCCCC(CC)COC(=O)c1ccc(Nc2nc(Nc3ccc(C(=O)OCC(CC)CCCC)cc3)nc(Nc3ccc(C(=O)OCC(CC)CCCC)cc3)n2)cc1` (stereo not shown) [Inv. 3, Ethylhexyl Triazone], the “L. crispatus relative protection by the UV filter(s) vs. vehicle control” value in experiment [1] (50 SED (500 mJ/cm^2 UVA+UVB), sample at 20% v/v, after 4 h) is on record as “(+100) %”. Besides, the “S. epidermidis relative protection by the UV filter(s) vs. vehicle control” value in experiment [2] (15 SED (150 mJ/cm^2 UVA+UVB), sample at 20% v/v, after 4 h) is reported as “(+59) %”.

Regarding `CCCCC(CC)COC(=O)C(C#N)=C(c1ccccc1)c1ccccc1` (stereo not shown) [Inv. 1, Octocrylene], in experiment [1] (summary statement), the “survival rate of L. crispatus after UV radiation (in words)” value was “particularly good survival rate”. The “protection of S. epidermidis from UV radiation (in words)” value in experiment [2] (summary statement) is reported as “efficiently protecting”.
